Data: the supplement of paper PMC10307832

Tests used:
GSK-J4 + Trametinib = compound: CCOC(=O)CCNc1cc(N2CCc3ccccc3CC2)nc(-c2ccccn2)n1 [GSK-J4] + CC(=O)Nc1cccc(-n2c(=O)n(C3CC3)c(=O)c3c(Nc4ccc(I)cc4F)n(C)c(=O)c(C)c32)c1 [Trametinib] (partner 0.02 µM); assay: relative viability (nuclei count vs DMSO), 5 days (fraction); higher = more cells survive
Procedure, shortened: (§1)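 Medians of duplicate plates are given as relative viability. That measure is the nuclei count in treated wells divided by the count in vehicle wells. Counts were taken on 4× images of lung cancer cell lines in 1536-well plates, 5 days after pin-tool dosing the day after seeding with one drug alone or a fixed anchor-drug dose plus five library-drug doses (not always all listed) in √10 steps.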

GSK-J4 + AZD7762 = compound: CCOC(=O)CCNc1cc(N2CCc3ccccc3CC2)nc(-c2ccccn2)n1 [GSK-J4] + NC(=O)Nc1cc(-c2cccc(F)c2)sc1C(=O)N[C@H]1CCCNC1 [AZD7762] (partner 0.2 µM); assay: as above
Procedure, shortened: as §1

Row | Cell Line | relative viability (GSK-J4 + Trametinib; first compound 0.5 µM) | relative viability (GSK-J4 + Trametinib; first compound 1.581 µM) | relative viability (GSK-J4 + Trametinib; first compound 5 µM) | relative viability (GSK-J4 + Trametinib; first compound 15.81 µM) | relative viability (GSK-J4 + Trametinib; first compound 50 µM) | relative viability (GSK-J4 + AZD7762; first compound 0.5 µM) | relative viability (GSK-J4 + AZD7762; first compound 1.581 µM) | relative viability (GSK-J4 + AZD7762; first compound 5 µM) | relative viability (GSK-J4 + AZD7762; first compound 15.81 µM) | relative viability (GSK-J4 + AZD7762; first compound 50 µM)
1 | NCI-H661 | 0.583 | 0.582 | 0.5 | 0.462 | 0.418 |  |  |  |  | 
2 | NCI-H727 | 0.405 | 0.393 | 0.378 | 0.385 | 0.331 | 0.425 | 0.54 | 0.728 | 0.585 | 0.341
3 | NCI-H838 | 0.566 | 0.455 | 0.223 | 0.436 | 0.332 | 0.971 | 0.681 | 0.76 | 0.874 | 0.789
4 | NCI-H1355 | 0.371 | 0.4 | 0.486 | 0.396 | 0.327 | 0.731 | 0.693 | 0.516 | 0.532 | 0.584
5 | NCI-H1395 | 1.04 | 0.919 | 1.02 | 0.806 | 0.854 | 0.403 | 0.415 | 0.409 | 0.351 | 0.413
6 | NCI-H1437 | 0.478 | 0.444 | 0.553 | 0.491 | 0.29 | 1.1 | 0.898 | 1.02 | 1.07 | 0.595
7 | NCI-H1648 | 0.467 |  | 0.643 |  | 0.429 | 0.676 |  | 0.925 |  | 0.843
8 | NCI-H1650 | 0.678 | 0.56 | 0.608 | 0.646 | 0.419 |  |  |  |  | 
9 | NCI-H1651 | 0.761 | 0.785 | 0.898 | 0.79 | 0.772 | 0.4 | 0.468 | 0.466 | 0.406 | 0.38
10 | NCI-H1666 | 0.843 | 0.695 | 0.923 | 0.704 | 0.77 | 0.889 | 0.807 | 0.688 | 0.768 | 0.573
11 | NCI-H1703 |  |  |  |  |  | 0.117 |  | 0.113 | 0.119 | 0.119
12 | NCI-H1734 | 0.633 | 0.524 | 0.627 | 0.58 | 0.545 | 0.513 | 0.767 | 0.333 | 0.513 | 0.423
13 | NCI-H1755 | 0.809 | 0.72 | 0.754 | 0.649 | 0.65 | 0.42 | 0.622 | 0.294 | 0.4 | 0.387
14 | NCI-H1792 | 0.523 | 0.44 | 0.468 | 0.39 | 0.38 | 0.771 | 0.534 | 0.325 | 0.674 | 0.457
15 | NCI-H1793 | 0.432 | 0.375 | 0.336 | 0.28 | 0.228 | 0.595 | 0.324 | 0.215 | 0.151 | 0.156
16 | NCI-H1915 | 0.299 | 0.302 |  | 0.28 | 0.293 | 0.614 | 0.728 |  | 0.592 | 0.722
17 | NCI-H1944 | 0.4 | 0.394 |  | 0.307 | 0.357 | 0.492 | 0.64 |  | 0.414 | 0.427
18 | NCI-H1975 | 0.356 | 0.262 | 0.296 | 0.329 | 0.264 | 0.783 | 0.633 |  | 0.63 | 0.858
